Our source for the Kd values is PubChem BioAssay AID1549 (Sanford-Burnham Center for Chemical Genomics, 2009).

Calls of active or inactive are those of the source. No rule for the calls is given here. Where only a bound is given, the exact number is not on record here.

The target of the assay is Influenza A virus M2 proton channel (A/TW/4845/1999 H1N1). In words: M2 proton channel binding, NMR based, influenza A virus H1N1 strain (AID 1549). As to conditions: NMR binding screen, M2 protein.
With `O=C(NCc1cccs1)c1nn2cccnc2c1Cl`, the Kd is > 4 mM (inactive).

On to `Cn1c2ccccc2n2c(=S)[nH]nc12`, for which the Kd was > 4 mM (inactive). The same measure for `C[n+]1cccc(C(=O)[O-])c1`: > 4 mM (inactive). For `COCC(=O)/C=C1\Sc2ccccc2N1C` the value was > 4 mM (inactive); for `NC(=O)C1(c2ccccc2)CCOCC1`, > 4 mM (inactive). For `COC(=O)CSc1nc(N)cc(=O)[nH]1` the value was > 4 mM (inactive). As to `NC(=O)CSc1nnc(-c2ccncc2)o1`, the Kd is > 4 mM (inactive). The same measure for `O=C1CCCN1c1ccc(S(=O)O)cc1`: > 4 mM (inactive); for `CN1C(=O)/C(=C\c2ccc[nH]2)SC1=S`: > 4 mM (inactive); for `COc1cc(S(=O)(=O)Nc2cccnc2)ccc1F`: > 4 mM (inactive). The same measure for `O=C(CSc1ncccn1)Nc1nccs1`: > 4 mM (inactive). The same measure for `C/C=C/c1ccc2c(c1)OCO2`: > 4 mM (inactive); for `NC(=O)C1CCN(C(=O)c2ccccc2)CC1`: > 4 mM (inactive). On to `CC(=O)NC1=C(N(C)C)C(=O)c2ccccc2C1=O`, for which the Kd was > 4 mM (inactive). For `COC(=O)c1cc2cc(N)ccc2s1` the value was > 4 mM (inactive); for `O=C1CSC(=Nc2ccc(Cl)cc2)N1`, > 4 mM (inactive); for `CN(C)c1nc(N)nc(-c2nc3ccccc3s2)n1`, > 4 mM (inactive). For `Cc1c(C)[n+](=O)c(-c2cccs2)c(C)n1[O-]` the value was > 4 mM (inactive); for `CC(=O)O[C@]1(C)CC[C@@]23CC1C(C)(C)[C@@H]2CC[C@H]3C`, > 4 mM (inactive). The same measure for `COC1=CC(=O)C=C(OC)C1=O`: > 4 mM (inactive); for `O=C(Nc1cccnc1)c1ccc(Br)s1`: > 4 mM (inactive). Turning to `Nc1nc2ccccc2n1CCN1CCCC1`, the Kd is > 4 mM (inactive).

In the case of `O=C(NC1CCS(=O)(=O)C1)c1ccccc1` (stereo not drawn), the Kd was > 4 mM (inactive). For `C[C@H]1C[C@@H](O)[C@]2(O)[C@@]13CC(=O)OC[C@@]2(C)[C@](C)(O)C(=O)C3` the value was > 4 mM (inactive).

In the case of `COc1cccc(OC)c1C(=O)N1CCOCC1`, the Kd is > 4 mM (inactive). The same measure for `Cc1ccc(-c2c(C)n([O-])c(C)c(C)[n+]2=O)cc1`: > 4 mM (inactive); for `O=C(c1ccccc1F)N1CCN(c2ccccc2)CC1`: > 4 mM (inactive); for `COc1nc(-c2ccccc2)ccc1-c1noc(C)n1`: > 4 mM (inactive). For `O=C1Nc2ccc(S(=O)(=O)NCCO)c3cccc1c23` the value was > 4 mM (inactive); for `C[C@H]1C(=O)CCC2[C@]3(C)CC[C@@]4(C)C5CC(C)(C)CC[C@]5(C)CC[C@]4(C)C3CC[C@@]21C` (stereo partly drawn), > 4 mM (inactive).

For `CC(=O)O[C@@H]1C[C@@]2(C)[C@H](c3ccoc3)C[C@H]3O[C@]32[C@]2(C)C(=O)C(O)=C3C(C)(C)C(=O)C=C[C@]3(C)C12` (stereo partly drawn), the Kd is > 4 mM (inactive). For `CCNC(CC(=O)Nc1ccc(F)cc1)C(=O)O` (stereo not drawn) the value was > 4 mM (inactive); for `Cc1cc(Oc2ccccc2)nc(N)n1`, > 4 mM (inactive). The same measure for `CN1CCN(S(=O)(=O)c2ccc(=O)[nH]c2)CC1`: > 4 mM (inactive); for `c1ccc(-c2noc(-c3ccco3)n2)nc1`: > 4 mM (inactive). In the case of `CCSc1nc(N)c(NC(=O)c2ccco2)c(=O)[nH]1`, the Kd is > 4 mM (inactive).

`O=c1c(O)c(-c2ccccc2)oc2cc(O)ccc12`: the Kd is > 4 mM (inactive).

`CC(=O)Nc1nnc(-c2ccccc2S(C)(=O)=O)o1`: the Kd is > 4 mM (inactive). For `NC1CSCC1O` (stereo not drawn) the value was > 4 mM (inactive); for `Cc1cc(C)n(C/C=C/Cn2nc(C)cc2C)n1`, > 4 mM (inactive).

`O=C1CSC(=O)N1CN1CCCC1`: the Kd was > 4 mM (inactive).

On to `Oc1ccc(C(=S)N2CCOCC2)cc1`, for which the Kd was > 4 mM (inactive).

As for `COc1cccc(S(=O)(=O)Nc2cccnc2)c1`, the Kd was > 4 mM (inactive). Regarding `Oc1ccc(-n2ccnc2)cc1`, the Kd is > 4 mM (inactive). For `Cc1ccc(NC(=O)C2CCN(S(C)(=O)=O)CC2)cc1` the value was > 4 mM (inactive); for `C/C=C(\C)C(=O)O[C@@H]1c2c(ccc3ccc(=O)oc23)OC(C)(C)[C@@H]1OC(C)=O`, > 4 mM (inactive). The same measure for `CC1NC(C(=O)O)Cc2c1[nH]c1ccccc21` (stereo not drawn): > 4 mM (inactive); for `O=C1NCC(=O)N2CCc3ccccc3C12` (stereo not drawn): > 4 mM (inactive). As to `OCc1ccc(OC(F)(F)F)cc1`, the Kd is > 4 mM (inactive). The same measure for `COn1c(=O)c(C)[n+]([O-])c2ccccc21`: > 4 mM (inactive); for `COc1ccccc1/C=C\C(=O)O`: > 4 mM (inactive); for `c1ccc2[nH]c(NCCN3CCOCC3)nc2c1`: > 4 mM (inactive). The same measure for `Nc1nsc(-c2ccccc2)n1`: > 4 mM (inactive); for `O=C1NCCCC1C(=O)N1CCCCC1` (stereo not drawn): > 4 mM (inactive); for `CCOC(=O)C1CCC(=O)c2cccn21` (stereo not drawn): > 4 mM (inactive). The same measure for `O=C1NC(=S)N/C1=C/c1ccsc1`: > 4 mM (inactive). Consider `Cc1cc(C(=O)NC(C)c2ccncc2)no1` (stereo not drawn), for which the Kd is > 4 mM (inactive). For `C/C(=N\NC(N)=S)C(=O)O` the value was > 4 mM (inactive); for `Cc1cc(=O)n(CC(C)C)c(O)c1C#N`, > 4 mM (inactive).

As to `COc1ccccc1-c1cn[nH]c(=S)n1`, the Kd was > 4 mM (inactive).

For `Cc1nnsc1-c1onc(C)c1C(=O)O`, the Kd is > 4 mM (inactive). For `Cc1ccc(N)nc1` the value was > 4 mM (inactive). The same measure for `CCOC(=O)c1nc2ccccc2c(=O)n1N`: > 4 mM (inactive); for `Cc1cc(=O)[nH]c2ccccc12`: > 4 mM (inactive); for `NS(=O)(=O)c1ccccc1Cl`: > 4 mM (inactive). For `NC(=O)C1(S(=O)(=O)c2ccccc2)CC1`, the Kd was > 4 mM (inactive). Turning to `NCc1cn2ccccc2n1`, the Kd was > 4 mM (inactive). For `O=C(NCc1ccccc1F)c1cccs1` the value was > 4 mM (inactive); for `COc1cccc(Oc2ccc(N)cn2)c1`, > 4 mM (inactive); for `O=C1CSC(=S)N1Cc1cccnc1`, > 4 mM (inactive).

Regarding `CC1(c2ccncc2)NC(=O)NC1=O` (stereo not drawn), the Kd is > 4 mM (inactive). For `COc1cc2c(cc1OC)[C@@H]1C(=O)c3ccc4c(c3O[C@@H]1CO2)CC(C(C)C)O4` (stereo partly drawn) the value was > 4 mM (inactive); for `NC(=O)c1ccsc1N`, > 4 mM (inactive). For `O=[N+]([O-])c1cccc(CN2CCC(O)CC2)c1` the value was > 4 mM (inactive). For `O=C(NCC1CCCCC1)c1ccco1` the value was > 4 mM (inactive); for `COc1cc2cc3c4cc(OC)c(OC)cc4cc[n+]3c(C)c2cc1OC`, > 4 mM (inactive); for `CC(=O)c1sc2nc(N)nn2c1C`, > 4 mM (inactive). As for `Nc1ccnc(C(=O)O)c1`, the Kd is > 4 mM (inactive). For `OCc1cccc2c1OCO2` the value was > 4 mM (inactive); for `CCc1noc(C)c1C(=O)N1CCOCC1`, > 4 mM (inactive).

As for `Cc1cc(C)n(-c2nncn2N)n1`, the Kd is > 4 mM (inactive). The same measure for `CS(=O)(=O)Nc1nnc(Cc2ccccc2)s1`: > 4 mM (inactive); for `COc1cccc(NC(=O)c2nc3ncccn3n2)c1`: > 4 mM (inactive).

`O=C(Nn1cnnc1)c1cccc(C(F)(F)F)c1`: the Kd is > 4 mM (inactive). The same measure for `CCn1c(-c2c[nH]c3ccccc23)n[nH]c1=S`: > 4 mM (inactive); for `O=c1c(-c2ccccc2)coc2cc(O)cc(O)c12`: > 4 mM (inactive).

For the compound `Nc1ccc(N2CCOCC2)c(Cl)c1`, the Kd is > 4 mM (inactive). For `NCc1csc2ccccc12` the value was > 4 mM (inactive); for `CCC(/C=C/[C@@H](C)[C@H]1CCC2C3CC=C4C[C@@H](O)CC[C@]4(C)C3CC[C@@]21C)C(C)C` (stereo partly drawn), > 4 mM (inactive); for `Oc1ccc(C(=S)N2CCCCC2)cc1Cl`, > 4 mM (inactive). The same measure for `Cn1nnc2cc(CN)ccc21`: > 4 mM (inactive); for `CCn1cnc2cc([N+](=O)[O-])ccc2c1=O`: > 4 mM (inactive); for `COc1ncnc(N)c1[N+](=O)[O-]`: > 4 mM (inactive).

On to `NC(=O)CCn1cnc2ccccc21`, for which the Kd is > 4 mM (inactive). For `O=C(NCCO)NC(=S)c1ccccc1` the value was > 4 mM (inactive).

Regarding `COc1ccccc1-c1n[nH]c(=O)o1`, the Kd is > 4 mM (inactive).

On to `O=C(NCc1n[nH]c(=O)c2ccccc12)C1CC1`, for which the Kd is > 4 mM (inactive). The same measure for `CCOC(=O)c1ccc2c(c1)nnn2C`: > 4 mM (inactive). For `O=[n+]1c2c(n([O-])c3ccccc31)CCCC2` the value was > 4 mM (inactive); for `CC1(C(=O)O)CC2C=CC1C2` (stereo not drawn), > 4 mM (inactive).

In the case of `O=C(O)c1ccc2ncccc2c1`, the Kd was > 4 mM (inactive).

For `OC1CCCN(Cc2ccccc2)C1` (stereo not drawn), the Kd was > 4 mM (inactive).

As for `Nc1nc(SCc2ccc3c(c2)OCCO3)n[nH]1`, the Kd is > 4 mM (inactive). The same measure for `Cc1nc(SCC#N)c2c3c(sc2n1)CCC3`: > 4 mM (inactive); for `O=C(O)c1cnc2n(c1=O)CCS2`: > 4 mM (inactive); for `COc1ccc(NC(=O)N2CCCCC2)cc1`: > 4 mM (inactive). The same measure for `NC(=O)C1CCN(Cc2ccccc2)CC1`: > 4 mM (inactive); for `O=[n+]1cc(-c2ccccc2)n([O-])c2c1CCC2`: > 4 mM (inactive).

For orientation: Kd means the equilibrium constant for the complex coming apart.
